Numbered stars: 1 amine (or outer) side, 2 acyl side, 3 side chain; on linkers, the order of the positions; unused ones are H or OH. Square brackets hold non-standard residues; d marks the D form. Side chains are listed from the residue outwards. Peptide text beside a SMILES is read from it. * marks the point of attachment. C18 diacid = O=C(O)CCCCCCCCCCCCCCCCC(=O)*; γGlu = O=C(O)[C@H](CCC(=O)[*:2])N[*:1]; Ac4c = NC1(C(=O)O)CCC1; AEEA = NCCOCCOCC(=O)O; Aib = CC(C)(N)C(=O)O
How the values were obtained:
[1] = biological target: T1, human GLP-1 receptor (Homo sapiens, UniProt P43220); assay: GLP-1 receptor potency, CRE luciferase reporter gene assay in BHK cells; assay type: cell-based; details: BHK cells expressing human GLP-1 receptor, read-out: EC50 GLP-1R
T1 construct: expressed in transfected cells; host or cells: BHK cells (parent BHKTS13), clone FCW467-12A/KZ10-1, with CRE luciferase
T1 sequence (P43220 24-463): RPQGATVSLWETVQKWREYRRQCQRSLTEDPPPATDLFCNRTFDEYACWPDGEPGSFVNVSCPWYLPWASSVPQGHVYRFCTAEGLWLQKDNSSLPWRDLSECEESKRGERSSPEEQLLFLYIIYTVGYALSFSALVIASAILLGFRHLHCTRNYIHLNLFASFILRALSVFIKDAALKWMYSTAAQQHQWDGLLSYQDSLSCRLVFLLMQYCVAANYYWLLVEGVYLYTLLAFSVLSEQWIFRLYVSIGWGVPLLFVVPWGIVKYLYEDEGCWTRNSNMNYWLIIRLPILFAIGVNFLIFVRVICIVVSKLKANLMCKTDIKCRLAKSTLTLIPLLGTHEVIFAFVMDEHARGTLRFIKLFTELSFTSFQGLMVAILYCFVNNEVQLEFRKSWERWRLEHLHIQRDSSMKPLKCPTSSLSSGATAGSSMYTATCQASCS
Method in brief: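 Potency as cAMP-driven firefly luciferase signal after 3 h, 37° C exposure to 10-fold dilutions (final 1×10EE-13–1×10EE-6 M). Stable hGLP-1R/CRE-luc BHK clone, 5×10EE3 cells/well, medium containing 2% ovalbumin and 0.2% Pluronic F-68; EC50 (pM) from variable-slope non-linear regression.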

[2] = Chemical stability assessment by RP-UPLC; assay type: physicochemical; details: 333 μM, 8 mM phosphate buffer pH 7.3, 37° C. vs 5° C.
Method in brief: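 Purity loss = (purity after 14 days at 5° C. minus that at 37° C.) relative to the 5° C. value, purity being main-peak area % by RP-UPLC with UV at 215 nm. Samples were 333 μM in 8 mM phosphate, pH 7.3; gradient adjusted for outlying retention times.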

SMILES | EC50 [1] [pM] | Purity loss; 14 days at 37° C. [2] [%]
CC(C)C[C@H](NC(=O)[C@H](Cc1ccc(O)cc1)NC(=O)[C@H](CCCCN)NC(=O)[C@H](CO)NC(=O)[C@H](CC(C)C)NC(=O)[C@H](CC(=O)O)NC(=O)[C@H](CO)NC(=O)[C@@H](NC(=O)[C@H](Cc1ccccc1)NC(=O)[C@@H](NC(=O)CNC(=O)[C@H](CCC(N)=O)NC(=O)C(C)(C)NC(=O)[C@@H](N)Cc1c[nH]cn1)[C@@H](C)O)[C@@H](C)O)C(=O)N[C@@H](CC(=O)O)C(=O)N[C@@H](C)C(=O)N[C@@H](CCCNC(=N)N)C(=O)N[C@@H](CCCNC(=N)N)C(=O)N[C@@H](C)C(=O)N[C@@H](CCCNC(=N)N)C(=O)N[C@@H](CC(=O)O)C(=O)N[C@@H](Cc1ccccc1)C(=O)N[C@H](C(=O)N[C@@H](CCC(N)=O)C(=O)N[C@@H](Cc1c[nH]c2ccccc12)C(=O)N[C@@H](CC(C)C)C(=O)N[C@@H](CC(C)C)C(=O)N[C@@H](CC(N)=O)C(=O)N[C@@H](CCCCNC(=O)CC[C@H](NC(=O)CC[C@H](NC(=O)COCCOCCNC(=O)COCCOCCNC(=O)CC[C@H](NC(=O)CCCCCCCCCCCCCCCCC(=O)O)C(=O)O)C(=O)O)C(=O)O)C(N)=O)C(C)C [Example 65] (H-H[Aib]QGTFTSDLSKYLDARRARDFVQWLLNK([γGlu-γGlu-AEEA-AEEA-γGlu-C18 diacid])-NH2; N-terminus assumed) | 6 | 3
CC(C)C[C@H](NC(=O)[C@H](Cc1ccc(O)cc1)NC(=O)[C@H](CCCCN)NC(=O)[C@H](CO)NC(=O)[C@H](CC(C)C)NC(=O)[C@H](CC(=O)O)NC(=O)[C@H](CO)NC(=O)[C@@H](NC(=O)[C@H](Cc1ccccc1)NC(=O)[C@@H](NC(=O)CNC(=O)[C@H](CCC(N)=O)NC(=O)C(C)(C)NC(=O)[C@@H](N)Cc1c[nH]cn1)[C@@H](C)O)[C@@H](C)O)C(=O)N[C@@H](CC(=O)O)C(=O)N[C@@H](C)C(=O)N[C@@H](CCCNC(=N)N)C(=O)N[C@@H](CCCNC(=N)N)C(=O)N[C@@H](C)C(=O)N[C@@H](CCCNC(=N)N)C(=O)N[C@@H](CC(=O)O)C(=O)N[C@@H](Cc1ccccc1)C(=O)N[C@H](C(=O)N[C@@H](CCC(N)=O)C(=O)N[C@@H](Cc1c[nH]c2ccccc12)C(=O)N[C@@H](CC(C)C)C(=O)N[C@@H](CC(C)C)C(=O)N[C@@H](CO)C(=O)N[C@@H](CCCCNC(=O)CC[C@H](NC(=O)CC[C@H](NC(=O)COCCOCCNC(=O)COCCOCCNC(=O)CC[C@H](NC(=O)CCCCCCCCCCCCCCCCC(=O)O)C(=O)O)C(=O)O)C(=O)O)C(N)=O)C(C)C [Example 66, N^ε29-[(4S)-4-carboxy-4-[[(4S)-4-carboxy-4-[[2-[2-[2-[[2-[2-[2-[[(4S)-4-carboxy-4-(17-carboxyheptadecanoylamino)butanoyl]amino]ethoxy]ethoxy]acetyl]amino]ethoxy]ethoxy]acetyl]amino]butanoyl]amino]butanoyl]-[Aib2,Leu10,Ala16,Arg20,Leu27,Ser28,Lys29]-Glucagon amide] (H-H[Aib]QGTFTSDLSKYLDARRARDFVQWLLSK([γGlu-γGlu-AEEA-AEEA-γGlu-C18 diacid])-NH2; N-terminus assumed) | 5 | 2
CC(C)C[C@H](NC(=O)[C@H](Cc1ccc(O)cc1)NC(=O)[C@H](CCCCN)NC(=O)[C@H](CO)NC(=O)[C@H](CC(C)C)NC(=O)[C@H](CC(=O)O)NC(=O)[C@H](CO)NC(=O)[C@@H](NC(=O)[C@H](Cc1ccccc1)NC(=O)[C@@H](NC(=O)CNC(=O)[C@H](CCC(N)=O)NC(=O)C(C)(C)NC(=O)[C@@H](N)Cc1c[nH]cn1)[C@@H](C)O)[C@@H](C)O)C(=O)N[C@@H](CCC(=O)O)C(=O)N[C@@H](CO)C(=O)N[C@@H](CCCNC(=N)N)C(=O)N[C@@H](CCCNC(=N)N)C(=O)N[C@@H](C)C(=O)N[C@@H](CCCNC(=N)N)C(=O)N[C@@H](CCC(=O)O)C(=O)N[C@@H](Cc1ccccc1)C(=O)N[C@H](C(=O)N[C@@H](CCC(N)=O)C(=O)N[C@@H](Cc1c[nH]c2ccccc12)C(=O)N[C@@H](CC(C)C)C(=O)N[C@@H](CC(C)C)C(=O)N[C@@H](CCCCNC(=O)CC[C@H](NC(=O)CC[C@H](NC(=O)[C@H](CO)NC(=O)[C@H](CCC(=O)O)NC(=O)[C@H](CO)NC(=O)CC[C@H](NC(=O)CC[C@H](NC(=O)CCCCCCCCCCCCCCCCC(=O)O)C(=O)O)C(=O)O)C(=O)O)C(=O)O)C(=O)N[C@H](C(N)=O)[C@@H](C)O)C(C)C [Example 67, N^ε28-[(4S)-4-carboxy-4-[[(4S)-4-carboxy-4-[[(2S)-2-[[(2S)-4-carboxy-2-[[(2S)-2-[[(4S)-4-carboxy-4-[[(4S)-4-carboxy-4-(17-carboxyheptadecanoylamino)butanoyl]amino]butanoyl]amino]-3-hydroxypropanoyl]amino]butanoyl]amino]-3-hydroxypropanoyl]amino]butanoyl]amino]butanoyl]-[Aib2,Leu10,Glu15,Arg20,Glu21,Leu27,Lys28]-Glucagon amide] (H-H[Aib]QGTFTSDLSKYLESRRAREFVQWLLK([γGlu-γGlu-Ser-Glu-Ser-γGlu-γGlu-C18 diacid])T-NH2; N-terminus assumed) | 4 | 4
CC(C)C[C@H](NC(=O)[C@H](Cc1ccc(O)cc1)NC(=O)[C@H](CCCCN)NC(=O)[C@H](CO)NC(=O)[C@H](CC(C)C)NC(=O)[C@H](CC(=O)O)NC(=O)[C@H](CO)NC(=O)[C@@H](NC(=O)[C@H](Cc1ccccc1)NC(=O)[C@@H](NC(=O)CNC(=O)[C@H](CCC(N)=O)NC(=O)C1(NC(=O)[C@@H](N)Cc2c[nH]cn2)CCC1)[C@@H](C)O)[C@@H](C)O)C(=O)N[C@@H](CCC(=O)O)C(=O)N[C@@H](CO)C(=O)N[C@@H](CCCCN)C(=O)N[C@@H](CCCNC(=N)N)C(=O)N[C@@H](C)C(=O)N[C@@H](CCCNC(=N)N)C(=O)N[C@@H](CCC(=O)O)C(=O)N[C@@H](Cc1ccccc1)C(=O)N[C@H](C(=O)N[C@@H](CCC(N)=O)C(=O)N[C@@H](Cc1c[nH]c2ccccc12)C(=O)N[C@@H](CC(C)C)C(=O)N[C@@H](CC(C)C)C(=O)N[C@@H](CCCCNC(=O)CC[C@H](NC(=O)CC[C@H](NC(=O)[C@H](CO)NC(=O)[C@H](CCC(=O)O)NC(=O)[C@H](CO)NC(=O)CC[C@H](NC(=O)CC[C@H](NC(=O)CCCCCCCCCCCCCCCCC(=O)O)C(=O)O)C(=O)O)C(=O)O)C(=O)O)C(=O)N[C@H](C(N)=O)[C@@H](C)O)C(C)C [Example 68, N^ε28-[(4S)-4-carboxy-4-[[(4S)-4-carboxy-4-[[(2S)-2-[[(2S)-4-carboxy-2-[[(2S)-2-[[(4S)-4-carboxy-4-[[(4S)-4-carboxy-4-(17-carboxyheptadecanoylamino)butanoyl]amino]butanoyl]amino]-3-hydroxypropanoyl]amino]butanoyl]amino]-3-hydroxypropanoyl]amino]butanoyl]amino]butanoyl]-[Acb2,Leu10,Glu15,Lys17,Arg20,Glu21,Leu27,Lys28]-Glucagon amide] (H-H[Ac4c]QGTFTSDLSKYLESKRAREFVQWLLK([γGlu-γGlu-Ser-Glu-Ser-γGlu-γGlu-C18 diacid])T-NH2; N-terminus assumed) | 7 | 3
CC(C)C[C@H](NC(=O)[C@H](Cc1ccc(O)cc1)NC(=O)[C@H](CCCCN)NC(=O)[C@H](CO)NC(=O)[C@H](CC(C)C)NC(=O)[C@H](CC(=O)O)NC(=O)[C@H](CO)NC(=O)[C@@H](NC(=O)[C@H](Cc1ccccc1)NC(=O)[C@@H](NC(=O)CNC(=O)[C@H](CCC(N)=O)NC(=O)C(C)(C)NC(=O)[C@@H](N)Cc1c[nH]cn1)[C@@H](C)O)[C@@H](C)O)C(=O)N[C@@H](CCC(=O)O)C(=O)N[C@@H](CO)C(=O)N[C@@H](CCCCN)C(=O)N[C@@H](CCCNC(=N)N)C(=O)N[C@@H](C)C(=O)N[C@@H](CCCNC(=N)N)C(=O)N[C@@H](CO)C(=O)N[C@@H](Cc1ccccc1)C(=O)N[C@H](C(=O)N[C@@H](CCC(N)=O)C(=O)N[C@@H](Cc1c[nH]c2ccccc12)C(=O)N[C@@H](CC(C)C)C(=O)N[C@@H](CC(C)C)C(=O)N[C@@H](CCCCNC(=O)CC[C@H](NC(=O)CC[C@H](NC(=O)[C@H](CO)NC(=O)[C@H](CCC(=O)O)NC(=O)[C@H](CO)NC(=O)CC[C@H](NC(=O)CC[C@H](NC(=O)CCCCCCCCCCCCCCCCC(=O)O)C(=O)O)C(=O)O)C(=O)O)C(=O)O)C(=O)N[C@H](C(N)=O)[C@@H](C)O)C(C)C [Example 69, N^ε28-[(4S)-4-carboxy-4-[[(4S)-4-carboxy-4-[[(2S)-2-[[(2S)-4-carboxy-2-[[(2S)-2-[[(4S)-4-carboxy-4-[[(4S)-4-carboxy-4-(17-carboxyheptadecanoylamino)butanoyl]amino]butanoyl]amino]-3-hydroxypropanoyl]amino]butanoyl]amino]-3-hydroxypropanoyl]amino]butanoyl]amino]butanoyl]-[Aib2,Leu10,Glu15,Lys17,Arg20,Ser21,Leu27,Lys28]-Glucagon amide] (H-H[Aib]QGTFTSDLSKYLESKRARSFVQWLLK([γGlu-γGlu-Ser-Glu-Ser-γGlu-γGlu-C18 diacid])T-NH2; N-terminus assumed) | 7 | 2

— US9474790B2, “Stable, protracted GLP-1/glucagon receptor co-agonists for medical use” (Novo Nordisk A/S, priority 2013, dated 2016)
